Assay results: US8436155B2, “7,2″-dehydrate puerarin and its salts, preparation method and use thereof” (Shandong University, priority 2010, dated 2013)

Columns and labels:
rat arrhythmias = test: Antiarrhythmic experiment: arrhythmia induced by 0.1% BaCl2 in rats, ECG monitored for 30 min; assay type: in vivo, Wistar rats; conditions: for Arrhythmia duration: if not restored within 30 min, the record was 30 min
Method: 1. Method: 60 male, healthy adult Wistar rats with body weight of 180-220 g were randomly divided into 6 groups, i.e., a normal saline group, a propylene glycol solvent gavage group, a propylene glycol solvent intravenous injection group, a puerarin injection group, a 7,2″-dehydrate puerarin gavage group, and a 7,2″-dehydrate puerarin intravenous injection group, with 10 rats each group. The intravenous injection was carried out one time a day for three consecutive days. The gavage was carried out two times a day for three consecutive days. The normal saline group was administered with equal volume of 0.9% NaCl injection. The dose of the propylene glycol solvent gavage group was 14.3% propylene glycol 1 mL/100 g. The dose of the propylene glycol solvent intravenous injection group was 40% propylene glycol 0.5 mL/100 g. The dose of the puerarin injection group was 50 mg/kg. The dose of the 7,2″-dehydrate puerarin gavage group was 60 mg/kg. The dose of the 7,2″-dehydrate puerarin intravenous injection group was 30 mg/kg. The rats were anesthetized with 10% chloral hydrate (0.35 mL/100 g) by intraperitoneal injection and fixed in the back. A BL-410 biological functional system was introduced to monitor the ECG changes of the rats. A femoral vein of the rats was exposed, a scalp needle inserted, and a constant speed syringe pump connected. 0.1% BaCl2 was pumped with a dose of 0.1 mL/100 g and a speed of 0.6 mL/min. From the injection of BaCl2 on, the ECGs were monitored and recorded within 30 min. The arrhythmia latency and arrhythmia duration were recorded (if not restored within 30 min, the record was 30 min). The experimental results were collected and analyzed using Software SPSS. If P<0.05, the results has significant difference.

rabbit blood coagulation = test: Anticoagulation experiment in vitro: coagulation time of oxalated rabbit blood after adding CaCl2; conditions: 37±0.5° C., x ± SD
Method: 1. Method: A rabbit was weighed and injected with 3% sodium pentobarbital 1 mL/kg via an ear vein, and then anaesthetized. […] The resulting solution was shaken uniformly and put into a constant temperature water bath (37±0.5° C.). Every 30 seconds, the small test tubes were tilted slightly once, and the coagulation time was recorded (the test tubes were tilted slightly, if no blood bled, the time was recorded as coagulation time). The experimental results were collected and analyzed using Software SPSS. If P<0.05, the results has significant difference.

platelet aggregation = conditions: in vitro, dose-dependent; read-out: IC50, inhibition on platelet aggregation in vitro; cited from earlier work

## O=c1c(-c2ccc(O)cc2)coc2c([C@@H]3O[C@H](CO)[C@@H](O)[C@H](O)[C@H]3O)c(O)ccc12 [Puerarin]
Rat arrhythmias; puerarin injection group, 50 mg/kg
  Arrhythmia duration: 30 min
Rat arrhythmias; puerarin injection group, 50 mg/kg, once a day for three days, x ± SD
  Arrhythmia latency: 86.75 ± 42.55 s
Rabbit blood coagulation; 3 mg/mL
  coagulation time: 15.3 ± 2.4 min

## CC(=O)Oc1ccccc1C(=O)Oc1ccc2c(=O)c(-c3ccc(O)cc3)coc2c1[C@@H]1O[C@H](CO)[C@@H](O)[C@H](O)[C@H]1O [7-acetylsalicylic acyl puerarin]
Platelet aggregation
  IC50: 910 µM

## O=c1c(-c2ccc(O)cc2)coc2c3c(ccc12)O[C@@H]1[C@@H](O)[C@H](O)[C@@H](CO)O[C@@H]31 [7,2″-dehydrate puerarin]
Rat arrhythmias; gavage, 60 mg/kg, two times a day for three days, x ± SD
  Arrhythmia latency: 29.25 ± 5.12 s
Rat arrhythmias; gavage, 60 mg/kg, x ± SD
  Arrhythmia duration: 2.09 ± 0.98 min
Rat arrhythmias; intravenous injection, 30 mg/kg, once a day for three days, x ± SD
  Arrhythmia latency: 47.25 ± 19.87 s
Rat arrhythmias; intravenous injection, 30 mg/kg, x ± SD
  Arrhythmia duration: 17.75 ± 4.61 min
Rabbit blood coagulation; 0.75 mg/mL (low dose)
  coagulation time: 14.7 ± 1.6 min
Rabbit blood coagulation; 1.5 mg/mL (medium dose)
  coagulation time: 22.7 ± 2.6 min
Rabbit blood coagulation; 3 mg/mL
  coagulation time: 38.5 ± 2.1 min
